These results are taken from patent publication US7998965B2, “Glutamate aggrecanase inhibitors” (Wyeth LLC, priority 2005, dated 2011).

Experiment [1] addresses T1, purified recombinant human Aggrecanase-1 (rAgg1) (Homo sapiens, UniProt O75173).
T1 sequence (O75173 213-837): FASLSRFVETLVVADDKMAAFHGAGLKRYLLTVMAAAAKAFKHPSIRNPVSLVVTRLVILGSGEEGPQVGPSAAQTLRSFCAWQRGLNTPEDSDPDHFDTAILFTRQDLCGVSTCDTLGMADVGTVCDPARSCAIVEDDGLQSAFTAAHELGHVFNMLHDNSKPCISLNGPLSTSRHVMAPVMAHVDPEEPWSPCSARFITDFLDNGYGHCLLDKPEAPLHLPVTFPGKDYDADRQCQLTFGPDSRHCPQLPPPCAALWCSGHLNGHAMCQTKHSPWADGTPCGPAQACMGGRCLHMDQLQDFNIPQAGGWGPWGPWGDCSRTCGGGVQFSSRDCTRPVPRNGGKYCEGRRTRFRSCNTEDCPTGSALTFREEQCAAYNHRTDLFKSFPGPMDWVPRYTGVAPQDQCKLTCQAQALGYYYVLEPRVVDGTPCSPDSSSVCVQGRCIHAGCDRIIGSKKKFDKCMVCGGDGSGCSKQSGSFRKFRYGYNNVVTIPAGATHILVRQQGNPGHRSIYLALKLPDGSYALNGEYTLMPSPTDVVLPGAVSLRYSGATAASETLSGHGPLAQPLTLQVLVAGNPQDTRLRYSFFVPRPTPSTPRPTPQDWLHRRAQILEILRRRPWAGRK
The experiment is described as follows: In vitro fluorescence screen for Aggrecanase-1 inhibitors. It counts as biochemical. Set-up: Agg1 % at concentration: scale not given here. Conditions: for IC50: read-out: Agg1 IC50.

Experiment [2] has as its target T2, purified recombinant human Aggrecanase-2 (Ag2t-Phe628-Strep) (Homo sapiens, UniProt Q9UNA0).
T2 construct: the form used is denoted as Ag2t-Phe628-Strep (MW=41,737)
T2 sequence (Q9UNA0 262-628): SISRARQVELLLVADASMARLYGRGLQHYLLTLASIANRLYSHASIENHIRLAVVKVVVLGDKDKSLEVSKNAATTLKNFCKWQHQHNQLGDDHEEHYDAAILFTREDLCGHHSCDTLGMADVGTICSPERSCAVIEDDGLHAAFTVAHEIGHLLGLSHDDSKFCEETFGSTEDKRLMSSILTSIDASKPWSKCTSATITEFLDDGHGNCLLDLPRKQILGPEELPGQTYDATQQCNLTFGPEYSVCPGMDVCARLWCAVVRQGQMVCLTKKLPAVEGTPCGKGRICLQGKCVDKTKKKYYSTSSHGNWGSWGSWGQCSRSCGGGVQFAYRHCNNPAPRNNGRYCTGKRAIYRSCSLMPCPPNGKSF
The experiment in a line: In vitro fluorescence screen for Aggrecanase-2 inhibitors. Conditions: for IC50: read-out: Agg 2 IC50; for inhibition at 11 µM: read-out: Agg 2 % at concentration. The format is biochemical.

The structures appear in SMILES notation. Like-named read-outs stand apart in the source and are kept apart here.

As usually defined, the IC50 is the concentration at which inhibition is half-maximal. For the compound `O=C(O)CC[C@H](NC(=O)c1ccc(/C=C/C(=O)c2ccccc2)cc1)C(=O)NCc1ccccc1` [Example 12I, N-benzyl-N^2-{4-[(1E)-3-oxo-3-phenylprop-1-en-1-yl]benzoyl}-L-α-glutamine], the half-maximal inhibitory concentration (IC50) in experiment [1] (Table 2) was over 25000 nM; in experiment [2] (Table 2), over 20000 nM.

Regarding `Nc1cccc(C#Cc2ccc(C(=O)N[C@@H](CCC(=O)O)C(=O)NCc3ccccc3)cc2)c1` [Example 12J, N^2-{4-[(3-aminophenyl)ethynyl]benzoyl}-N-benzyl-L-α-glutamine], the IC50 is about 8000 nM in experiment [1] (Table 2) and about 22000 nM in experiment [2] (Table 2).

Regarding `O=C(O)CC[C@H](NC(=O)c1ccc(C#CC(O)(c2ccccc2)c2ccccc2)cc1)C(=O)NCc1ccccc1` [Example 12K, N-benzyl-N^2-[4-(3-hydroxy-3,3-diphenylprop-1-yn-1-yl)benzoyl]-L-α-glutamine], the figures for the IC50 in experiment [1] (Table 2) and in experiment [2] (Table 2) were about 25000 nM and over 22000 nM, respectively.

As for `COc1cccc(C#Cc2ccc(C(=O)N[C@@H](CCC(=O)O)C(=O)NCc3ccccc3)cc2)c1` [Example 12L, N-benzyl-N^2-{4-[(3-methoxyphenyl)ethynyl]benzoyl}-L-α-glutamine], the results for the IC50 in experiment [1] (Table 2) and in experiment [2] (Table 2) were about 22000 nM and over 22000 nM, respectively.

As to `CCc1cccc(OCc2ccc(-c3ccc(C(=O)N[C@@H](CCC(=O)O)C(=O)NC(C)(C)Cc4ccccc4)cc3)cc2)c1` [Example 15AA, N-(1,1-dimethyl-2-phenylethyl)-N^2-({4′-[(3-ethylphenoxy)methyl]biphenyl-4-yl}carbonyl)-L-α-glutamine], the figures for the IC50 in experiment [1] (Table 2) and in experiment [2] (Table 2) were 44 nM and 327 nM, respectively.

On to `COc1cccc(OCc2ccc(-c3ccc(C(=O)N[C@@H](CCC(=O)O)C(=O)NC(C)(C)Cc4ccccc4)cc3)cc2)c1` [Example 15BB, N-(1,1-dimethyl-2-phenylethyl)-N^2-({4′-[(3-methoxyphenoxy)methyl]biphenyl-4-yl}carbonyl)-L-α-glutamine], for which the 50% inhibitory concentration (IC50) was 53 nM in experiment [1] (Table 2) and 527 nM in experiment [2] (Table 2).

As for `O=C(O)CC[C@H](NC(=O)c1ccc(-c2ccc(OCc3cccc(F)c3)cc2)cc1)C(=O)NCc1ccccc1` [Example 15I, N-benzyl-N^2-({4′-[(3-fluorobenzyl)oxy]biphenyl-4-yl}carbonyl)-L-α-glutamine], the IC50 in experiment [1] (Table 2) came out at 430 nM; in experiment [2] (Table 2), 1590 nM.

`O=C(O)CC[C@H](NC(=O)c1ccc(-c2ccc(OCc3ccccc3)cc2)cc1)C(=O)NCc1ccccc1` [Example 15J, N-benzyl-N^2-{[4′-(benzyloxy)biphenyl-4-yl]carbonyl}-L-α-glutamine]: the IC50 in experiment [1] (Table 2) was 510 nM; in experiment [2] (Table 2) it was about 3130 nM.

Regarding `COc1cc(CNC(=O)[C@H](CCC(=O)O)NC(=O)c2ccc(-c3cccc(OCc4ccccc4)c3)cc2)cc(OC)c1OC` [Example 15K, N^2-{[3′-(benzyloxy)biphenyl-4-yl]carbonyl}-N-(3,4,5-trimethoxybenzyl)-L-α-glutamine], the IC50 in experiment [1] (Table 3) was under 30 nM; in experiment [2] (Table 3), 379 nM.

Regarding `COc1cc(COc2cccc(-c3ccc(C(=O)N[C@@H](CCC(=O)O)C(=O)NCc4cc(OC)c(OC)c(OC)c4)cc3)c2)cc(OC)c1` [Example 15L, N^2-({3′-[(3,5-dimethoxybenzyl)oxy]biphenyl-4-yl}carbonyl)-N-(3,4,5-trimethoxybenzyl)-L-α-glutamine], the values for the IC50 in experiment [1] (Table 3) and in experiment [2] (Table 3) were 47 nM and 413 nM, respectively.

On to `COc1cccc(COc2cccc(-c3ccc(C(=O)N[C@@H](CCC(=O)O)C(=O)NCc4cc(OC)c(OC)c(OC)c4)cc3)c2)c1` [Example 15M, N^2-({3′-[(3-methoxybenzyl)oxy]biphenyl-4-yl}carbonyl)-N-(3,4,5-trimethoxybenzyl)-L-α-glutamine], for which the IC50 is under 30 nM in experiment [1] (Table 3) and 789 nM in experiment [2] (Table 3).

Take `COc1cc(COc2ccc(-c3ccc(C(=O)N[C@@H](CCC(=O)O)C(=O)NC(C)(C)Cc4ccc(F)cc4)cc3)cc2)cc(OC)c1` [Example 15N, N^2-({4′-[(3,5-dimethoxybenzyl)oxy]biphenyl-4-yl}carbonyl)-N-[2-(4-fluorophenyl)-1,1-dimethylethyl]-L-α-glutamine]: the IC50 in experiment [1] (Table 3) amounted to 91 nM; in experiment [2] (Table 3), 103 nM.

For the compound `CC(C)(Cc1ccccc1)NC(=O)[C@H](CCC(=O)O)NC(=O)c1ccc(-c2ccc(COc3cc(C(F)(F)F)cc(C(F)(F)F)c3)cc2)cc1` [Example 15O, N^2-[(4′-{[3,5-bis(trifluoromethyl)phenoxy]methyl}biphenyl-4-yl)carbonyl]-N-(1,1-dimethyl-2-phenylethyl)-L-α-glutamine], the figures for the IC50 in experiment [1] (Table 3) and in experiment [2] (Table 3) were 52 nM and 3130 nM, respectively.

Turning to `CC(C)(Cc1ccccc1)NC(=O)[C@H](CCC(=O)O)NC(=O)c1ccc(-c2ccc(COc3ccc4c(c3)OCO4)cc2)cc1` [Example 15P, N^2-({4′-[(1,3-benzodioxol-5-yloxy)methyl]biphenyl-4-yl}carbonyl)-N-(1,1-dimethyl-2-phenylethyl)-L-α-glutamine], the IC50 in experiment [1] (Table 3) is under 30 nM; in experiment [2] (Table 3) it was 255 nM.

Take `COc1cc(OC)cc(OCc2ccc(-c3ccc(C(=O)N[C@@H](CCC(=O)O)C(=O)NCc4cccc(C)c4)cc3)cc2)c1` [Example 15Q, N^2-({4′-[(3,5-dimethoxyphenoxy)methyl]biphenyl-4-yl}carbonyl)-N-(3-methylbenzyl)-L-α-glutamine]: the figures for the IC50 in experiment [1] (Table 3) and in experiment [2] (Table 3) were 158 nM and 1940 nM, respectively.

As for `COc1cc(OC)cc(OCc2cccc(-c3ccc(C(=O)N[C@@H](CCC(=O)O)C(=O)NCc4cccc(C)c4)cc3)c2)c1` [Example 15R, N^2-({3′-[(3,5-dimethoxyphenoxy)methyl]biphenyl-4-yl}carbonyl)-N-(3-methylbenzyl)-L-α-glutamine], the IC50 in experiment [1] (Table 3) is 560 nM. In experiment [2] (Table 3, at 11000 (nM)), the inhibition at 11 µM is 48%.

`Cc1cccc(CNC(=O)[C@H](CCC(=O)O)NC(=O)c2ccc(-c3cccc(COc4cc(C(F)(F)F)cc(C(F)(F)F)c4)c3)cc2)c1` [Example 15S, N^2-[(3′-{[3,5-bis(trifluoromethyl)phenoxy]methyl}biphenyl-4-yl)carbonyl]-N-(3-methylbenzyl)-L-α-glutamine]: the “Agg1 % at concentration” value in experiment [1] (Table 3, at 1850 (nM)) was 30%. In experiment [2] (Table 3, at 33000 (nM)), the “Agg 2 % at concentration” value is on record as 41%.

In the case of `O=C(O)CC[C@H](NC(=O)c1ccc(-c2ccc(OCc3cccc(-c4ccccc4)c3)cc2)cc1)C(=O)NCc1ccccc1` [Example 15U, N-benzyl-N^2-{[4′-(biphenyl-3-ylmethoxy)biphenyl-4-yl]carbonyl}-L-α-glutamine], the “Agg1 % at concentration” value in experiment [1] (Table 3, at 100 (nM)) was determined as 53%; in experiment [1] (Table 3, at 1000 (nM)) it was 53%. Also, the inhibition at 11 µM in experiment [2] (Table 3, at 11000 (nM)) worked out at 30%. Moreover, the IC50 in experiment [2] (Table 3) came out at 600 nM.

With `COc1cccc(-c2cccc(COc3ccc(-c4ccc(C(=O)N[C@@H](CCC(=O)O)C(=O)NCc5ccccc5)cc4)cc3)c2)c1` [Example 15V, N-benzyl-N^2-({4′-[(3′-methoxybiphenyl-3-yl)methoxy]biphenyl-4-yl}carbonyl)-L-α-glutamine], the “Agg1 % at concentration” value in experiment [1] (Table 3, at 40 (nM)) worked out at 47% 40. The IC50 in experiment [2] (Table 3) was determined as 700 nM.

In the case of `O=C(O)CC[C@H](NC(=O)c1ccc(-c2ccc(OCc3ccccc3-c3ccccc3)cc2)cc1)C(=O)NCc1ccccc1` [Example 15W, N-benzyl-N^2-{[4′-(biphenyl-2-ylmethoxy)biphenyl-4-yl]carbonyl}-L-α-glutamine], the “Agg1 % at concentration” value in experiment [1] (Table 3, at 1900 (nM)) was 56%. In addition, in experiment [2] (Table 3, at 11000 (nM)), the “Agg 2 % at concentration” value turned out to be 59%.

As to `COc1cccc(-c2ccccc2COc2ccc(-c3ccc(C(=O)N[C@@H](CCC(=O)O)C(=O)NCc4ccccc4)cc3)cc2)c1` [Example 15X, N-benzyl-N^2-({4′-[(3′-methoxybiphenyl-2-yl)methoxy]biphenyl-4-yl}carbonyl)-L-α-glutamine], in experiment [1] (Table 3, at 1900 (nM)), the “Agg1 % at concentration” value is 46%. Moreover, in experiment [2] (Table 3, at 11000 (nM)), the “Agg 2 % at concentration” value worked out at 52%.

For the compound `CC(C)(Cc1ccccc1)NC(=O)[C@H](CCC(=O)O)NC(=O)c1ccc(-c2ccc(COc3cccc(C(C)(C)C)c3)cc2)cc1` [Example 15Y, N^2-({4′-[(3-tert-butylphenoxy)methyl]biphenyl-4-yl}carbonyl)-N-(1,1-dimethyl-2-phenylethyl)-L-α-glutamine], the figures for the IC50 in experiment [1] (Table 2) and in experiment [2] (Table 2) were 220 nM and 841 nM, respectively.
